Measurements as given in ChEMBL document CHEMBL4130387, “Design, synthesis and in vivo study of novel pyrrolidine-based 11β-HSD1 inhibitors for age-related cognitive dysfunction” (Eur J Med Chem, 2017).
Blank lines part the entries; values can stand above or below the compound they belong to. Active and inactive are the calls of the source. The calls are words filed in the database; no cut-off is given here.

What was measured:
[1] = Stability in human liver microsomes at 10 uM after 30 mins by LC-MS/MS analysis; type: ADME, microsome; settings: read-out: Stability
[2] = molecular target: T1, 11-beta-hydroxysteroid dehydrogenase type 2 (Homo sapiens) (UniProt P80365); test: Inhibition of human full-length 11beta-HSD2 expressed in HEK293 cells at 10 uM using cortisol as substrate after 2 hrs by LC-MS analysis relative to control; type: cell-based
T1 sequence (whole entry): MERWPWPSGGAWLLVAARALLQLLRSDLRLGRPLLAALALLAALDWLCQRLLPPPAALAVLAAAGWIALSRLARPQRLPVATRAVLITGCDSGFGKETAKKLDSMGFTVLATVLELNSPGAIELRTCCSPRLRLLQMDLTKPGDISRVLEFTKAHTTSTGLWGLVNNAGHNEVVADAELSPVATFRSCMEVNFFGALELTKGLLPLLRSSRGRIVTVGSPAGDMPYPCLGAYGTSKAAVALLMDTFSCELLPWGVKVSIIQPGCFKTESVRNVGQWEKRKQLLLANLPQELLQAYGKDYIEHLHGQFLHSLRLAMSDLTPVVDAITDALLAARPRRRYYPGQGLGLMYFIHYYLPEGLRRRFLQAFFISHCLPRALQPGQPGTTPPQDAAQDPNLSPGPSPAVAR

Mus musculus [3] = test: Extrapolated AUC in CD1 mouse at 21 mg/kg, po by UPLC-MS/MS analysis; type: ADME, organism-based; settings: in vivo
Mus musculus [4] = test: Dose normalized AUC (infinity) in CD1 mouse at 21 mg/kg, po by UPLC-MS/MS analysis; type: ADME, organism-based; settings: in vivo
[5] = Tmax in CD1 mouse at 21 mg/kg, po by UPLC-MS/MS analysis; type: ADME, organism-based; settings: in vivo
[6] = Plasma concentration in CD1 mouse at 21 mg/kg, po after 3 hrs by UPLC-MS/MS analysis; type: ADME, organism-based
Mus musculus [7] = test: Upregulation of IDE protein levels in SAMP8 mouse brain at 21 mg/kg, po for 4 days by Western blot analysis; type: functional, organism-based
Mus musculus [8] = test: Effect on pre-APP protein levels in SAMP8 mouse brain at 21 mg/kg, po for 4 days by Western blot analysis; type: functional, organism-based
Mus musculus [9] = test: Cognitive enhancing effect in SAMP8 mouse assessed as prevention of short-term memory deficits by measuring time spent on exploring novel objects at 21 mg/kg, po for 4 days and measured during 10 mins retention trial after 2 hrs by novel object recognition test; type: functional, organism-based
[10] = molecular target: 11-beta-hydroxysteroid dehydrogenase 1 (Homo sapiens, UniProt P28845); test: Inhibition of 11beta-HSD1 in human liver microsomes using [3H]cortisone as substrate preincubated for 15 mins followed by substrate addition and measured after 30 mins by scintillation proximity assay
11-beta-hydroxysteroid dehydrogenase 1 (Homo sapiens, UniProt P28845), sequence (P28845 whole entry): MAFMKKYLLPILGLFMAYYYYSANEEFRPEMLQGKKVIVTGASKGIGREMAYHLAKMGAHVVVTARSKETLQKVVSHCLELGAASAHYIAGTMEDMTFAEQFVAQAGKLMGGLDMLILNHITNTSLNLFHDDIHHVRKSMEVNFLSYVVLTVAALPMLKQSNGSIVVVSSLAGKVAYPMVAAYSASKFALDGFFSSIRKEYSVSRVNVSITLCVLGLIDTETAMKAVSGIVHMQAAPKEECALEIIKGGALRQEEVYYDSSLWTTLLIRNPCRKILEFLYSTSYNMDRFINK

[11] = molecular target: T2, 11-beta-hydroxysteroid dehydrogenase type 2 (Homo sapiens, UniProt P80365); test: Inhibition of human full-length 11beta-HSD2 expressed in HEK293 cells using cortisol as substrate after 2 hrs by LC-MS analysis; type: cell-based
T2 sequence (P80365 whole entry): T1 sequence (whole entry)

[12] = Plasma concentration in CD1 mouse at 21 mg/kg, po after 0.5 hrs by UPLC-MS/MS analysis; type: ADME, organism-based
Mus musculus [13] = test: Effect on Bace1 mRNA levels in SAMP8 mouse brain at 21 mg/kg, po for 4 days by qRT-PCR analysis; type: functional, organism-based
[14] = Plasma concentration in CD1 mouse at 21 mg/kg, po after 1 hr by UPLC-MS/MS analysis; type: ADME, organism-based
Mus musculus [15] = test: Dose normalized Cmax in CD1 mouse at 21 mg/kg, po by UPLC-MS/MS analysis; type: ADME, organism-based; settings: in vivo
Mus musculus [16] = test: Downregulation of APP beta-secretase C-terminal fragment protein levels in SAMP8 mouse brain at 21 mg/kg, po for 4 days by Western blot analysis; type: functional, organism-based
Mus musculus [17] = test: Upregulation of PSD95 mRNA levels in SAMP8 mouse at 21 mg/kg, po for 4 days by qRT-PCR analysis; type: functional, organism-based
[18] = AUClast in CD1 mouse at 21 mg/kg, po by UPLC-MS/MS analysis; type: ADME, organism-based; parameters: dose 21 mg/kg, time 0 - last, route oral; settings: in vivo
Mus musculus [19] = test: Downregulation of IL-6 mRNA levels in SAMP8 mouse at 21 mg/kg, po for 4 days by qRT-PCR analysis; type: functional, organism-based
[20] = molecular target: 11-beta-hydroxysteroid dehydrogenase 1 (Mus musculus, UniProt P50172); test: Inhibition of 11beta-HSD1 in CD1 mouse liver microsomes using cortisone as substrate preincubated for 15 mins followed by substrate addition and measured after 30 mins by LC-MS analysis
11-beta-hydroxysteroid dehydrogenase 1 (Mus musculus, UniProt P50172), sequence (P50172 whole entry): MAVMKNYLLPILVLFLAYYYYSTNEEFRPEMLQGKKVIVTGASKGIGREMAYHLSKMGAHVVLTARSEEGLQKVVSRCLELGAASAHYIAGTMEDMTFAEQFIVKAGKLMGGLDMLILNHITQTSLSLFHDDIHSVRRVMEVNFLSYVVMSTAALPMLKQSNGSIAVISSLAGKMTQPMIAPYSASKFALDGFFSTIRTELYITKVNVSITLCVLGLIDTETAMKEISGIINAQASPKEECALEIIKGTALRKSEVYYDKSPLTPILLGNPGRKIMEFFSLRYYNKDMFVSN

[21] = Elimination rate constant in CD1 mouse at 21 mg/kg, po by UPLC-MS/MS analysis; type: ADME, organism-based; settings: in vivo
[22] = Apparent volume of distribution during terminal phase in CD1 mouse at 21 mg/kg, po by UPLC-MS/MS analysis; type: ADME, organism-based; settings: in vivo, read-out: Vz/F
[23] = Ratio of plasma concentration in CD1 mouse at 21 mg/kg, po after 0.5 hrs by UPLC-MS/MS analysis to IC50 for inhibition of 11beta-HSD1 in human liver microsomes; type: organism-based; settings: in vivo
[24] = Cmax in CD1 mouse at 21 mg/kg, po by UPLC-MS/MS analysis; type: ADME, organism-based; parameters: dose 21 mg/kg, route oral; settings: in vivo
[25] = Drug uptake in CD1 mouse brain at 21 mg/kg, po after 3 hrs by UPLC-MS/MS analysis; type: ADME, organism-based; settings: read-out: Drug uptake
[26] = Effective permeability by PAMPA; type: ADME; settings: read-out: Peff
Mus musculus [27] = test: Cognitive enhancing effect in SAMP8 mouse assessed as prevention of short-term memory deficits by measuring time spent on exploring novel objects at 21 mg/kg, po for 4 days and measured during 10 mins retention trial after 24 hrs by novel object recognition test; type: functional, organism-based
[28] = Stability in mouse liver microsomes at 10 uM after 30 mins by LC-MS/MS analysis; type: ADME, microsome; settings: read-out: Stability
[29] = Apparent half-life of the terminal disposition phase in CD1 mouse at 21 mg/kg, po by UPLC-MS/MS analysis; type: ADME, organism-based; settings: in vivo, read-out: t1/2 lambda z (converted)
[30] = AUC (infinity) in CD1 mouse at 21 mg/kg, po by UPLC-MS/MS analysis; type: ADME, organism-based; parameters: dose 21 mg/kg, time infinity, route oral; settings: in vivo
Mus musculus [31] = test: Downregulation of iNOS mRNA levels in SAMP8 mouse at 21 mg/kg, po for 4 days by qRT-PCR analysis; type: functional, organism-based
Mus musculus [32] = test: Effect on ADAM10 mRNA levels in SAMP8 mouse brain at 21 mg/kg, po for 4 days by qRT-PCR analysis; type: functional, organism-based
Mus musculus [33] = test: Effect on pre-APP mRNA levels in SAMP8 mouse brain at 21 mg/kg, po for 4 days by qRT-PCR analysis; type: functional, organism-based
[34] = Plasma concentration in CD1 mouse at 21 mg/kg, po after 5 hrs by UPLC-MS/MS analysis; type: ADME, organism-based
[35] = Apparent oral clearance in CD1 mouse at 21 mg/kg, po by UPLC-MS/MS analysis; type: ADME, organism-based; settings: in vivo

Structure (SMILES): O=C(C1CCCCC1)N1CC2C3CCC(C4CC34)C2C1 (configuration not stated)
%AUCextra (Mus musculus [3]): 0.787%
AUC/dose (Mus musculus [4]): 1.906 kg·ng·h/mL/mg
Tmax [5]: 30 min
concentration at 3 h [6]: 2.12 ng/mL
Activity (Mus musculus [7]): Active
Activity (Mus musculus [8]): inactive
Activity (Mus musculus [9]): Active
IC50 [10]: 0.03 µM
IC50 [11]: < 0.1 µM
concentration at 0.5 h [12]: 44.6 ng/mL
Activity (Mus musculus [13]): inactive
remaining at 0.5 h, 10 µM [1]: 94%
concentration at 1 h [14]: 10.3 ng/mL
Cmax/dose (Mus musculus [15]): 2.123 kg·ng/mL/mg
Activity (Mus musculus [16]): Active
Activity (Mus musculus [17]): Active
AUC(0-t) [18]: 39.7 ng·h/mL
Activity (Mus musculus [19]): Active
IC50 [20]: 0.08 µM
k el [21]: 0.00025 s⁻¹
Vd/F [22]: 583 L/kg
Ratio [23]: 5
Cmax [24]: 44.6 ng/mL
concentration at 3 h [25]: 1.45 ng/mL
Papp [26]: > 30 ×10⁻⁶ cm/s
Activity (Mus musculus [27]): Active
remaining at 0.5 h, 10 µM [28]: 93%
half-life [29]: 46.3 min
AUC(0-inf) [30]: 40 ng·h/mL
Activity (Mus musculus [31]): Active
Activity (Mus musculus [32]): inactive
Activity (Mus musculus [33]): inactive
concentration at 5 h [34]: 0.28 ng/mL
CL/F [35]: 525 L/h/kg

Structure (SMILES): O=C(C1CCCCC1)N1CC2C3CCC(CC3)C2C1 (configuration not stated)
IC50 [10]: 0.02 µM
IC50 [11]: 0.1 to 1 µM
remaining at 0.5 h, 10 µM [1]: 17%

Structure (SMILES): O=C(C1CCCCC1)N1CC2C3C=CC(CC3)C2C1 (configuration not stated)
remaining at 0.5 h, 10 µM [1]: 44%

Structure (SMILES): O=C(C1CCCCC1)N1CC2C3C=CC(C3)C2C1 (configuration not stated)
IC50 [10]: 0.02 µM
IC50 [11]: < 0.1 µM
remaining at 0.5 h, 10 µM [1]: 60%

More lines, now with the values ahead:

remaining at 0.5 h, 10 µM [1]: 79%
inhibition [2]: 88%
Structure (SMILES): CCN1CCC[C@@H]1C(=O)NC1C2CC3CC(C2)CC1C3 (some centres not stated)

IC50 [10]: 0.02 µM
IC50 [11]: 1 to 10 µM
remaining at 0.5 h, 10 µM [1]: 27%
Structure (SMILES): O=C(C1CCCCC1)N1CC2C3C=CC(C4CC34)C2C1 (configuration not stated)

IC50 [10]: 0.09 µM
IC50 [11]: < 0.1 µM
remaining at 0.5 h, 10 µM [1]: 37%
Papp [26]: 5.2 ×10⁻⁶ cm/s
Structure (SMILES): O=C(C1CCCCC1)N1CC2C3CCC(C3)C2C1 (configuration not stated)

IC50 [10]: 0.04 µM
inhibition [2]: 100%
Structure (SMILES): O=C(C1CCCCC1)N1CC23CC=CCC2(CC=CC3)C1 (configuration not stated)
